This note sets out measurements from BindingDB's records for doi:10.1021/jm020955n (Johannes Gutenberg-Universität, 2002).

As usually defined, the Ki is a dissociation constant, usually derived from enzyme kinetics or from competition with a known ligand. A lower Ki goes with higher affinity.

The assay addresses Glutamate receptor ionotropic, NMDA 1 glycine site (Sus scrofa). Put plainly: Tested for the affinity for the glycine binding site of the N-methyl-D-aspartate glutamate receptor using pig brain membranes in binding assay with [3H]-MDL- 105,519.
On to `O=C(O)c1cc2c(Cl)cc(Cl)cc2[nH]1`, for which the Ki worked out at 2900 nM.

The compound `O=C(O)c1[nH]c2cc(Cl)cc(Cl)c2c1CNS(=O)(=O)c1ccccc1` [3-(Benzenesulfonylamino-methyl)-4,6-dichloro-1H-indole-2-carboxylic acid] came in with a Ki of 990 nM.

With `O=C(O)c1[nH]c2cc(Cl)cc(Cl)c2c1CNCc1ccccc1` [3-(Benzylamino-methyl)-4,6-dichloro-1H-indole-2-carboxylic acid], the Ki stood at 92000 nM.

As to `CC(=O)c1cccc(-n2c(O)cn(Cc3c(C(=O)O)[nH]c4cc(Cl)cc(Cl)c34)c2=O)c1` [3-[3-(3-Acetyl-phenyl)-2,4-dioxo-imidazolidin-1-ylmethyl]-4,6-dichloro-1H-indole-2-carboxylic acid], affinity was put at a Ki of 57 nM.

`CC(=O)c1ccc(-n2c(O)cn(Cc3c(C(=O)O)[nH]c4cc(Cl)cc(Cl)c34)c2=O)cc1` [3-[3-(4-Acetyl-phenyl)-2,4-dioxo-imidazolidin-1-ylmethyl]-4,6-dichloro-1H-indole-2-carboxylic acid] registered a Ki of 150 nM. Against the preceding compound, the Ki is about 2.6-fold higher.

`Cc1ccc(-n2c(O)cn(Cc3c(C(=O)O)[nH]c4cc(Cl)cc(Cl)c34)c2=O)cc1` [4,6-Dichloro-3-(2,4-dioxo-3-p-tolyl-imidazolidin-1-ylmethyl)-1H-indole-2-carboxylic acid] had a Ki of 36 nM.

Compound `O=C(O)c1[nH]c2cc(Cl)cc(Cl)c2c1Cn1cc(O)n(-c2ccccc2)c1=O` [4,6-Dichloro-3-(2,4-dioxo-3-phenyl-imidazolidin-1-ylmethyl)-1H-indole-2-carboxylic acid] yielded a Ki of 22 nM. Against the preceding compound, the Ki is about 1.6-fold lower.

`O=C(O)c1[nH]c2cc(Cl)cc(Cl)c2c1CN1CCN(c2ccccc2)C1=O` [4,6-Dichloro-3-(2-oxo-3-phenyl-imidazolidin-1-ylmethyl)-1H-indole-2-carboxylic acid] had a Ki of 58 nM.

Regarding `O=C(O)c1[nH]c2cc(Cl)cc(Cl)c2c1Cn1cc(O)n(C2CCCCC2)c1=O` [4,6-Dichloro-3-(3-cyclohexyl-2,4-dioxo-imidazolidin-1-ylmethyl)-1H-indole-2-carboxylic acid], the affinity corresponds to a Ki of 130 nM.

`CCn1c(O)cn(Cc2c(C(=O)O)[nH]c3cc(Cl)cc(Cl)c23)c1=O` [4,6-Dichloro-3-(3-ethyl-2,4-dioxo-imidazolidin-1-ylmethyl)-1H-indole-2-carboxylic acid]: the Ki came out at 1000 nM.

In turn, `CC(C)n1c(O)cn(Cc2c(C(=O)O)[nH]c3cc(Cl)cc(Cl)c23)c1=O` [4,6-Dichloro-3-(3-isopropyl-2,4-dioxo-imidazolidin-1-ylmethyl)-1H-indole-2-carboxylic acid] returned a Ki of 1050 nM. This Ki and that of the compound before are within 1.5-fold of each other.

For the compound `O=C(O)c1[nH]c2cc(Cl)cc(Cl)c2c1Cn1cc(O)n(-c2ccccc2)c1=S` [4,6-Dichloro-3-(4-oxo-3-phenyl-2-thioxo-imidazolidin-1-ylmethyl)-1H-indole-2-carboxylic acid], the Ki turned out to be 580 nM. This Ki lies about 1.8-fold lower than the previous one.

For the compound `Cc1c(O)n(-c2ccccc2)c(=O)n1Cc1c(C(=O)O)[nH]c2cc(Cl)cc(Cl)c12` [4,6-Dichloro-3-(5-methyl-2,4-dioxo-3-phenyl-imidazolidin-1-ylmethyl)-1H-indole-2-carboxylic acid], the affinity corresponds to a Ki of 310 nM.

Turning to `O=C(O)c1[nH]c2cc(Cl)cc(Cl)c2c1Cn1cc(O)n(-c2cc(Cl)cc(Cl)c2)c1=O` [4,6-Dichloro-3-[3-(3,5-dichloro-phenyl)-2,4-dioxo-imidazolidin-1-ylmethyl]-1H-indole-2-carboxylic acid], the Ki is 80 nM.

In turn, `O=C(O)c1[nH]c2cc(Cl)cc(Cl)c2c1Cn1cc(O)n(-c2cccc(Cl)c2)c1=O` [4,6-Dichloro-3-[3-(3-chloro-phenyl)-2,4-dioxo-imidazolidin-1-ylmethyl]-1H-indole-2-carboxylic acid] gave a Ki of 85 nM.

The compound `O=C(O)c1[nH]c2cc(Cl)cc(Cl)c2c1Cn1cc(O)n(-c2ccc(Cl)cc2)c1=O` [4,6-Dichloro-3-[3-(4-chloro-phenyl)-2,4-dioxo-imidazolidin-1-ylmethyl]-1H-indole-2-carboxylic acid] registered a Ki of 120 nM.

As to `O=C(O)c1[nH]c2cc(Cl)cc(Cl)c2c1Cn1cc(O)n(-c2ccc(F)cc2)c1=O` [4,6-Dichloro-3-[3-(4-fluoro-phenyl)-2,4-dioxo-imidazolidin-1-ylmethyl]-1H-indole-2-carboxylic acid], the Ki turned out to be 53 nM.

In turn, `COc1ccc(-n2c(O)cn(Cc3c(C(=O)O)[nH]c4cc(Cl)cc(Cl)c34)c2=O)cc1` [4,6-Dichloro-3-[3-(4-methoxy-phenyl)-2,4-dioxo-imidazolidin-1-ylmethyl]-1H-indole-2-carboxylic acid] registered a Ki of 100 nM.

With `O=C(NCc1c(C(=O)O)[nH]c2cc(Cl)cc(Cl)c12)Nc1ccccc1` [4,6-Dichloro-3-[(3-phenyl-ureido)-methyl]-1H-indole-2-carboxylic acid], the affinity corresponds to a Ki of 14 nM. Compared with the last compound, the Ki is about 7.1-fold lower.

Compound `O=C(NCc1c(C(=O)O)[nH]c2cc(Cl)cc(Cl)c12)NS(=O)(=O)c1ccccc1` [4,6-dichloro-3-[({[(phenylsulfonyl)amino]carbonyl}amino)methyl]-1H-indole-2-carboxylic acid] came in with a Ki of 72 nM.
